# Data as given in patent publication US5091390A, “Treatment of CNS disorders with 4,5,6,7-tetrahydro-1H-imidazo (4,5-)-pyridines and analogs” (E. I. du Pont de Nemours and Company, priority 1990, dated 1992).
# Several values for one entry are separate records, joined by “and”; a condition that tells them apart may be missing. Identical values can stand only once. Entries after “also recorded” stand apart in the source; their conditions may differ. Like-named read-outs stand apart in the source and are kept apart here.
# T1: AII-2 receptor (Rattus norvegicus, UniProt P35351)
# T1 sequence (P35351 1-363): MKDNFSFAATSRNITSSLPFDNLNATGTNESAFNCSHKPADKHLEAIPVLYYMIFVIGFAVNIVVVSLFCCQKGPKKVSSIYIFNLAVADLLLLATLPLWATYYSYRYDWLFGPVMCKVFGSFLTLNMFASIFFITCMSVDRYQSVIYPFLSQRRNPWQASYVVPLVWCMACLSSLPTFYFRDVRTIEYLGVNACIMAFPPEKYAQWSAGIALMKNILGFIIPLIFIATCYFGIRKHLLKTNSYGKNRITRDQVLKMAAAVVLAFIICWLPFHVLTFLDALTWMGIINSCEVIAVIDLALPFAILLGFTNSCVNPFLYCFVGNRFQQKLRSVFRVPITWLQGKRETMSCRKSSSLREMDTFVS
# T2: AII receptors (rat adrenal medullary microsomes) (Rattus norvegicus, UniProt P35351)
# T2 construct: from tissue; host or cells: rat adrenal medulla, microsomes
# T2 sequence (P35351 1-363): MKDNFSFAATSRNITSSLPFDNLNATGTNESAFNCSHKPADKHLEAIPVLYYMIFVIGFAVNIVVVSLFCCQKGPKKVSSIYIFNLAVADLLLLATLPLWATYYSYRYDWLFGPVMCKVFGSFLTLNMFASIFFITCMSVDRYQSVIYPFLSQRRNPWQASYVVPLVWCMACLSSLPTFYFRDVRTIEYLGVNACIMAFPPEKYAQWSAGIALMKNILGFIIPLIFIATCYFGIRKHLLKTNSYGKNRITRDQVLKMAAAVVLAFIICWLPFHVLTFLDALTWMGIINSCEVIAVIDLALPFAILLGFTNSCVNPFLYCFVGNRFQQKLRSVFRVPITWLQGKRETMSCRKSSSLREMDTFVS
# Columns and labels:
# AII-1 receptor [1] = assay: DTT inactivation of the AII-1 receptor; type: binding, rat
# From the text: (§1) 102: 685-696, except the above binding assay conditions were used.
# AII receptor subtype A = details: cited from earlier work
# AII receptor subtype B = details: cited from earlier work
# AII-2 receptor [2] = molecular target: T1, AII-2 receptor; assay: DTT inactivation of the AII-2 receptor; type: binding; set-up: AII-1 and AII-2 receptor subtypes in rat adrenal cortex microsomes; from tissue; host or cells: rat adrenal cortex (microsomes)
# From the text: as §1
# AII-1 receptor [3] = assay: [125I]AII radioligand binding, rat adrenal cortical microsomes, AII-1 (DuP 753-sensitive) sites; details: for preference for one AII receptor subtype: AII-1 vs. AII-2
# Protocol: (§2) The same procedures and conditions were used for adrenal medullary microsomes. […] After 60 min of incubation, the reaction was terminated by addition of cold assay buffer. The bound and free radioactivity were rapidly separated through glass-fiber filters, and the trapped radioactivity was determined by gamma counting.
# [4] = molecular target: T2, AII receptors (rat adrenal medullary microsomes); assay: [125I]AII specific binding, rat adrenal medulla / medullary microsomes
# Protocol: as §2
# [5] = system: AII receptors (rat adrenal medullary microsomes); assay: as above; details: below 1×10^-5 M; rat adrenal medullary microsomes
# Protocol: as §2
# [6] = system: AII receptors (rat adrenal cortical membranes); assay: AII binding to rat adrenal cortical membranes with and without DTT pretreatment; details: for effect of DTT on the inhibition of AII binding: 5 mM DTT, DuP 753 at 3×10^-9 to 3×10^-6 M
# From the text: as §1
# [7] = system: AII receptors (rat adrenal gland); details: DuP 753 10^-5 M, XB-655 10^-6 M
# Protocol: Fresh tissue was frozen on powdered dry ice and stored at -70° C. until used. Sections were cut at 15 microns and thaw mounted onto gelatin subbed slides. […] Slides were placed under X-ray film (Kodak XAR-5) and exposed for 11/2 days before processing the film to produce the film autoradiograms. The slides were then fixed with paraformaldehyde vapor at 80° C. for two hours, dried under air, delipidated, and dipped in emulsion (Kodak NTB-2). The coated slides were exposed for 4-5 weeks, developed with Kodak D-19 and counter-stained with hemotoxylin-eosin to view the histology.
# [8] = system: AII receptors (rat adrenal cortical microsomes); assay: [125I]AII total specific binding, rat adrenal cortex / cortical microsomes
# Protocol: as §2
# AII-2 receptor [9] = molecular target: T1, AII-2 receptor; assay: [125I]AII radioligand binding, rat adrenal cortical microsomes, AII-2 (DuP 753-insensitive) sites; details: for selective binding to AII-2 receptors: AII-2 vs. AII-1
# Protocol: as §2
# [10] = system: memory of previously learned tasks; details: in vivo; cited from earlier work
# PA task = assay: renin-induced amnesia in a PA task (applicants); type: in vivo; details: IVT
# avoidance learning = details: renin IVT, cited from earlier work; for avoidance learning: captopril IVT prior to the renin injection
# [11] = system: light/dark habituation performance; details: cited from earlier work
# [12] = system: retention of a passive avoidance (PA) response; details: injected into the dorsal neostriatum, rats; cited from earlier work
# [13] = system: potassium stimulated release of [^3 H]ACh; details: entorhinal cortex of rat brain; cited from earlier work
# [14] = in the presence of 10^-5 M XB-655, rat adrenal cortex microsomes, read-out: IC50 AII-1
molecule,measurement,setting,value
"O[C@H](CS)[C@H](O)CS (racemic) [DTT, dithiothreitol]",inactivation of AII-1 receptor by DTT,AII-1 receptor [1],particularly sensitive to inactivation; also recorded: inactivated by DTT
same,effect of DTT on binding to subtype A,AII receptor subtype A,enhance binding to subtype A
same,effect of DTT on binding to subtype B,AII receptor subtype B,inhibit binding to subtype B
same,inactivation of AII-2 receptor by DTT,AII-2 receptor [2],resistant to DTT inactivation
CCCCc1nc(Cl)c(CO)n1Cc1ccc(-c2ccccc2-c2nn[nH]n2)cc1 [DuP 753],IC50,AII-1 receptor [3]; [14],12 nM
same,inhibition of AII binding (in words),[4]; rat adrenal medulla,essentially inactive
same,inhibition of binding below 1×10^-5 M,[5],10%
same,effect of DTT on the inhibition of AII binding,[6],essentially abolished
same,labeling of adrenal cortex by [125I]AII,[7],significantly reduced
same,labeling of adrenal medulla by [125I]AII,[7],not appreciably affected
same,inhibition of the total AII binding,[8],80%
"COC(=O)C1Cc2c(ncn2Cc2ccc(NC(=O)c3ccccc3C(=O)O)c(C)c2)CN1C(=O)C(c1ccccc1)c1ccccc1 (centres unmarked) [Example 2, Methyl-1-[4-amido-(2'-carboxyphenyl)-3-methylphenyl]methyl-5-diphenylacetyl-4,5,6,7-tetrahydro-1H-imidazo (4,5-C)-pyridine-6-carboxylate]",IC50,AII-1 receptor [3]; [14],12000 nM
same,selective binding to AII-2 receptors,AII-2 receptor [9],bind selectively to AII-2 receptors
O=C(O)C1Cc2c(ncn2Cc2ccc(-c3ccccc3-c3nnn[nH]3)cc2)CN1C(=O)C(c1ccccc1)c1ccccc1 (centres unmarked) [Example 27],IC50,AII-1 receptor [3]; [14],300000 nM
same,selective binding to AII-2 receptors,AII-2 receptor [9],bind selectively to AII-2 receptors
NCCCC[C@H](OP(=O)(O)CCCCc1ccccc1)C(=O)N1CCC[C@H]1C(=O)O [SQ 29852],anticholinergic effect on performance,[10],"ameliorate, at least in part"
same,memory of previously learned tasks,[10],protective effects on memory
CNCC(=O)N[C@@H](CCCN=C(N)N)C(=O)N[C@H](C(=O)N[C@@H](Cc1ccc(O)cc1)C(=O)N[C@H](C(=O)N[C@@H](Cc1cnc[nH]1)C(=O)N1CCC[C@H]1C(=O)N[C@@H](C)C(=O)O)C(C)C)C(C)C [Saralasin],preference for one AII receptor subtype,AII-1 receptor [3],no preference
same,IC50,AII-1 receptor [3]; [14],1.7 nM
same,IC50,"AII-1 receptor [3]; read-out: IC50, DuP 753-sensitive site, in the presence of 10^-5 M XB-655, unit inferred",~1.7 nM
same,IC50,[4]; rat adrenal medulla / medullary microsomes,0.4 nM
same,effect of DTT on the inhibition of AII binding,[6],not significantly altered
same,IC50,"AII-2 receptor [9]; IC50 AII-2, in the presence of 10^-5 M DuP 753, rat adrenal cortex microsomes",~1.3 nM and 1.3 nM
C[C@H](CS)C(=O)N1CCC[C@H]1C(=O)O [captopril],amnesia in a PA task,PA task,prevented
same,avoidance learning,avoidance learning,prevented the renin-induced avoidance disruption
same,anticholinergic scopolamine-induced disruption of performance,[11]; daily treatment,prevented
same,rate of acquisition of light/dark habituation performance,[11]; subchronic treatment,increased the rate of acquisition
NC(=O)[C@@H]1CCCN1C(=O)[C@H](Cc1cnc[nH]1)NC(=O)[C@@H]1CCC(=O)N1 [thyrotropin releasing hormone],retention of a PA response,[12],no effect
"Angiotensin II (DRVYIHPF; Angiotensin-2; UniProt P01019 25-32, looked up) [AII]",preference for one AII receptor subtype,AII-1 receptor [3],no preference
same,enhancement of inhibitory potency by DTT,[6]; presence vs. absence of DTT,2.5 fold
same,IC50,"[6]; read-out: IC50 in the absence of DTT, absence of DTT",1 nM
same,retention of a PA response,[12],disruption in retention of a PA response
same,basal levels of ACh release,[13],without effects on basal levels
same,potassium-stimulated release of ACh,[13],reduced potassium-stimulated release of ACh
same,labeling of adrenal cortex by [125I]AII,[7],potently inhibited the labeling
same,labeling of adrenal medulla by [125I]AII,[7],potently inhibited the labeling
"[1-sarcosine, 8-threonine]angiotensin II",antagonism of the AII effect on ACh release,[13],antagonized
lysine-8-vasopressin,retention of a PA response,[12],no effect
"renin: an enzyme involved in endogenous AII biosynthesis (protein, UniProt P00797 67-406, looked up) Renin: LTLGNTTSSVILTNYMDTQYYGEIGIGTPPQTFKVVFDTGSSNVWVPSSKCSRLYTACVYHKLFDASDSSSYKHNGTELTLRYSTGTVSGFLSQDIITVGGITVTQMFGEVTEMPALPFMLAEFDGVVGMGFIEQAIGRVTPIFDNIISQGVLKEDVFSFYYNRDSENSQSLGGQIVLGGSDPQHYEGNFHYINLIKTGVWQIQMKGVSVGSSTLLCEDGCLALVDTGASYISGSTSSIEKLMEALGAKKRLFDYVVKCNEGPTLPDISFHLGGKEYTLTSADYVFQESYSSKKLCTLAIHAMDIPPPTGPTWALGATFIRKFYTEFDRRNNRIGFALAR",amnesia in a PA task,PA task,dose-related amnesia
same,avoidance learning,avoidance learning,disruption of avoidance learning
same,AII level in cerebrospinal fluid (CSF),avoidance learning; increase from 40,about 5000 fmol per mL
